Laboratory results: ChEMBL document CHEMBL1201862, “PubChem BioAssay data set” (2004)
Activity calls are given as the source filed them.

Columns and labels:
[1] = system: Streptococcus sp. 'group A'; experiment: Streptococcus pyogenes SK(-)GAS viability under kanamycin – luminescence, BacTiterGlo, confirmation, counter-screen for streptokinase expression inhibitor project, dose response (AID 1900); assay type: functional, organism-based
[2] = Trypanosoma cruzi growth suppression in host cells – NIH3T3 host cells, beta-gal luminescence, confirmation (AID 2044); assay type: functional, cell-based;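 also: intracellular parasites grown in NIH/3T3 mouse fibroblasts as host cells; luminescent beta-galactosidase reporter signal from transgenic T. cruzi replicating inside host cells; inhibitors lower the luminescence signal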
Streptococcus = experiment: GAS UMAA2166 growth inhibition – luminescence, BacTiterGlo, counter-screen for streptokinase expression inhibitor project, dose response (AID 1915); assay type: functional, organism-based;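 also: potency for reduction of bacterial viability or growth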
[3] = NIH3T3 cell viability loss – ATP luminescence, mouse fibroblasts, counter-screen, dose response (AID 2010); assay type: functional, cell-based;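 also: cells exposed to compound for about 90 hours before reading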
[4] = biological target: T1, Small ubiquitin-related modifier 1 (Homo sapiens, UniProt P63165); experiment: SUMO1 protein interaction blockers, potency – biochemical, fluorescence polarization, uHTS hits, dose response (AID 624382); assay type: functional; details: read-out: IC50_Mean
T1 sequence (P63165 whole entry): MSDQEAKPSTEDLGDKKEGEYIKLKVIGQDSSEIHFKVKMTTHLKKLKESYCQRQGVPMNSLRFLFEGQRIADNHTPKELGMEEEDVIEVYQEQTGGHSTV

[5] = biological target: T1, Small ubiquitin-related modifier 1; experiment: SUMO1 protein-protein binding blockers, potency – biochemical, FRET, dose response (AID 624383); assay type: functional; details: read-out: IC50_Mean
[6] = biological target: T2, Long-chain-fatty-acid--AMP ligase FadD28 (Mycobacterium tuberculosis, UniProt P9WQ59); experiment: Fluorescence polarization aasay to screen for inhibitors that compete for the binding of FadD28 to a bisubstrate Measured in Biochemical System Using Plate Reader - 2147-01_Inhibitor_Dose_CherryPick_Activity.; assay type: functional, Mycobacterium tuberculosis H37Rv
T2 sequence (P9WQ59 whole entry): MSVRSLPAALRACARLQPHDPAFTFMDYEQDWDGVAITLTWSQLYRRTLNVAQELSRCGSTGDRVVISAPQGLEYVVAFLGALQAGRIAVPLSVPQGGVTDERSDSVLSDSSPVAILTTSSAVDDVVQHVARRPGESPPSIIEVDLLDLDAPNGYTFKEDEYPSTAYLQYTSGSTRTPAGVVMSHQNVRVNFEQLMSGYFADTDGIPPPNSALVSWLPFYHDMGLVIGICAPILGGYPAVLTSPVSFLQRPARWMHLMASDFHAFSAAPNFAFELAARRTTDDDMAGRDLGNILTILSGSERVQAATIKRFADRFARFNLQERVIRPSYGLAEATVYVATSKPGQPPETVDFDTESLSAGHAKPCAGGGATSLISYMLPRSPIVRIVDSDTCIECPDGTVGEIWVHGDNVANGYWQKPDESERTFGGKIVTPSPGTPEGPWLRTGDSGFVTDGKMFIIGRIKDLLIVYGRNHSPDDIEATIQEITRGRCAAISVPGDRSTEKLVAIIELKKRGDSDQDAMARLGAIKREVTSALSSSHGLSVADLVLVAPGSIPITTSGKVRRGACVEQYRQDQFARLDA

[7] = biological target: T3, Tyrosine-protein phosphatase non-receptor type 22 (Homo sapiens, UniProt Q9Y2R2); assay type: functional;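 also: confirmatory dose-response retesting of primary uHTS hits against LYP; potency is for inhibition of phosphatase activity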
T3 sequence (Q9Y2R2 whole entry): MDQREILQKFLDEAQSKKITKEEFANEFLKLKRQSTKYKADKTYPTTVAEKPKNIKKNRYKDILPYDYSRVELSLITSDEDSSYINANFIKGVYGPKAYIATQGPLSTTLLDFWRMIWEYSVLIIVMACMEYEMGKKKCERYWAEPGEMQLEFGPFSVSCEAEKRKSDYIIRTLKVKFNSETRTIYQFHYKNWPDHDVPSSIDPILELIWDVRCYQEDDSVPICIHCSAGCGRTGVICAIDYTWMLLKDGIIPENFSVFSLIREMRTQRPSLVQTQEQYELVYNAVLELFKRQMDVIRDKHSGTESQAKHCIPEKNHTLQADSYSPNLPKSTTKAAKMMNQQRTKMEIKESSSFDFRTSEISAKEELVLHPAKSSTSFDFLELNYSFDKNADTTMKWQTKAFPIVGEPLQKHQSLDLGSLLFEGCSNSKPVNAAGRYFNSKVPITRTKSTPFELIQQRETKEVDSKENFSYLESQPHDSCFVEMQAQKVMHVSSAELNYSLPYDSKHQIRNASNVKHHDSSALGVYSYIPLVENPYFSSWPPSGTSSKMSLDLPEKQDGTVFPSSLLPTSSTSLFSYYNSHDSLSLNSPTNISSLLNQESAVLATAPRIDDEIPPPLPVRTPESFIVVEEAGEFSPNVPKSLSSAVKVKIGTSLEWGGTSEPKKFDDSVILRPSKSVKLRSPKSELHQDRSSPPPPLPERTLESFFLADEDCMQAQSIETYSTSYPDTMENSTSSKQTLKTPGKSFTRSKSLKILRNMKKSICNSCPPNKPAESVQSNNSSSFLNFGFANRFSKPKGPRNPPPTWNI

INS1 = experiment: INS-1E survival protection against cytokine death – cell-based, luminescence, retest, dose response (AID 449756); assay type: functional; details: Rattus norvegicus;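 also: cell death triggered by IL-1 beta plus TNF-alpha plus IFN-gamma mixture; protective hits raise ATP signal compared with cytokine alone wells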
[8] = biological target: T4, Sentrin-specific protease 8 (Homo sapiens, UniProt Q96LD8); assay type: functional
T4 sequence (Q96LD8 whole entry): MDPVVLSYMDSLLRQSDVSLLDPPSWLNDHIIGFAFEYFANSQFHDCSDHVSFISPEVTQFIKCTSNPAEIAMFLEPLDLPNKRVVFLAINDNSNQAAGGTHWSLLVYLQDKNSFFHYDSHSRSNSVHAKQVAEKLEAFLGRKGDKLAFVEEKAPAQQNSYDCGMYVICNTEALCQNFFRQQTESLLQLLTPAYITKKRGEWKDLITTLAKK

CCN1/C(=C/c2ccc3cc(C)ccc3[n+]2CC)Sc2cc(C)c(C)cc21
EC50 [1]: 8.22 µM (active) | EC50 [2]: < 0.1 µM (active) | EC50 (Streptococcus): 8.85 µM (active) | EC50 [3]: 5.67 µM (active)

Nc1ccc2nc3c(O)nc(S)nc3nc2c1
IC50 [4]: 5.69 µM (active) | IC50 [5]: 17.5 µM (active) | AC50 [6]: 46.1 µM (active) | IC50 [7]: 76.3 µM (active)

Cc1oc2c(c1C(=O)c1ccccc1)C(=O)C(=O)c1ccccc1-2
AC50 (INS1): 2.71 µM (active)

O=C1CCCC2=C1C1(O)C(=O)c3ccccc3C1(O)O2 (stereo not given)
IC50 [8]: 2.52 µM (active)

CSc1ccc(C=NNc2ccc(S(=O)(=O)Nc3ccccc3C(=O)O)cc2[N+](=O)[O-])cc1
IC50 [4]: 3.23 µM (active) | IC50 [5]: 50.8 µM (inactive)

O=C1C(Cl)=C(NCCN2CCCCC2)C(=O)c2ccccc21
AC50 (INS1): 4.41 µM (active) | EC50 [2]: 0.509 µM (active) | EC50 [3]: 0.798 µM (active)

O=C(O)COc1ccc(/C=N/NC(=O)c2ccc(-c3csc(Nc4ccc(Cl)cc4)n3)cc2)cc1
IC50 [7]: < 1.24 µM (active)

COc1cc(NCCCNC(C)C)c2nccc(C)c2c1
IC50 [8]: 3.89 µM (active)

CC(/C=C1\SC(=S)N(NS(=O)(=O)c2ccccc2)C1=O)=C\c1ccccc1
EC50 [1]: 1.94 µM (active) | AC50 [6]: > 100 µM (inactive) | EC50 (Streptococcus): > 150 µM (not active)
